These results are taken from EP0104572A1, “Benzyl ethers of phenol Mannich bases, process for their production, their use and pharmaceutical preparations based on these compounds, intermediates and process for their production” (priority 1982, dated 1984).

Data set [1] is described as follows: Change of relative liver weight and liver findings in the 7-day oral rat study. The format is in vivo, männlichen Wistar-Ratten. As to conditions: for % Veränderung des relativen Lebergewichtes: oral (gavage), 7 days, male Wistar rats. The text has this: Die erfindungsgemäßen Verbindungen haben wertvolle therapeutische Eigenschaften. So erniedrigen sie vor allem die Konzentration von LDL und VLDL, die HDL-Fraktion aber kaum, in vielen Fällen wird diese Fraktion sogar vermehrt. Diese Verbindungen stellen daher einen wesentlichen Fortschritt gegenüber der Vergleichsverbindung Clofibrat dar, wie aus .den nachfolgend beschriebenen Daten ersichtlich ist. Sie können daher zur Prophylaxe und Regression von arteriosklerotischen Veränderungen herangezogen werden, indem sie einen kausalen Risikofaktor ausschalten. Hierzu zählen nicht nur die primären Hyperlidämien, sondern auch gewisse sekundäre Hyperlipidämien wie sie z.B. beim Diabetes vorkommen. […] Die mit einer hypolipidämischen Wirkung verbundene unerwünschte Beeinflussung der Leber zeigt sich auch in sehr starkem Maße bei der in J.Med.Chem. 18 (1975) S. 833-836 beschriebenen Vergleichsverbindung 1-(4-Methylbenzyl)-imidazol. […] Die erfindungsgemäßen Verbindungen zeigen dieses unerwünschte Verhalten nicht.
(§1) Die Wirkung der angeführten Verbindungen auf die Serum- Lipoproteine wurde an männlichen Wistar-Ratten untersucht, die 7 Tage per Schlundsonde mit den angeführten in Polyäthylenglykol 400 suspendierten Verbindungen behandelt wurden. Außerdem wurde eine Kontrollgruppe, die nur das Lösungsmittel Polyäthylenglykol 400 erhielt, mitgeführt, sowie bei den meisten Versuchen eine Ratten-Gruppe mit dem Standardhypolipidämikum Clofibrat. Pro Gruppe wurden in der Regel 10 Tiere eingesetzt, denen am Ende der Behandlung das Blut nach leichter Äthernarkose aus dem Orbitalplexus entnommen wurde. Aus dem gewonnenen Ratten-Serum wurden die Serum- Lipoproteine in der präparativen Ultrazentrifuge in folgende Dichteklassen getrennt: VLDL < 1,006; LDL 1,006 bis 1,04; HDL 1,04 bis 1,21

Data set [2] concerns Serum-Lipoproteine. The data set can be described thus: Change of serum and lipoprotein-fraction cholesterol in rats after 7 days of oral treatment (ultracentrifuge fractionation, CHOD-PAP cholesterol). The format is in vivo, männlichen Wistar-Ratten. The note with it: Rattus norvegicus, 168 h, oral (gavage), 7 days, male Wistar rats; for change in vivo at 3 mg/kg: 3 mg/kg / Tag; for change in vivo at 10 mg/kg: 10 mg/kg / Tag; for change in vivo at 30 mg/kg: 30 mg/kg / Tag; for change in vivo at 1 mg/kg: 1 mg/kg / Tag; for change in vivo at 20 mg/kg: 20 mg/kg / Tag.
Text: as §1
Da nämlich im Gegensatz zum Menschen die Serumlipoproteine der Ratte etwa 4/5 HDL-Cholesterin und nur 1/5 LDL-Cholesterin enthalten und nur sehr geringe Mengen von VLDL (beim Menschen umgekehrt etwa 2/3 LDL und VLDL und nur 1/3 bis 1/4 HDL), macht die Beurteilung einer hypolipidämischen Wir- .kung an der Ratte unbedingt eine Fraktionierung des Ratten-serums in Lipoproteinklassen erforderlich. Eine bloße Erniedrigung des Serum-Total-cholesteringehaltes an der Ratte würde nämlich nur die unerwünschte Erniedrigung der bei der Ratte vorwiegenden antiatherogenen HDL-Klasse anzeigen. Eine erwünschte Erniedrigung von LDL bei gleichzeitiger erwünschter Vermehrung von HDL hätte aber keine (wesentliche) Auswirkung auf den Totalcholesteringehalt des Ratten-Serums.
Aus den in der Ultrazentrifuge isolierten LipoproteinFraktionen wurde das darin enthaltene Cholesterin vollenzymatisch nach der CHOD-PAP-Methode mittels der Testkombination von Boehringer-Mannheim bestimmt und die Werte in µg/ml Serum umgerechnet. In der angeführten Tabelle ist die Veränderung des Lipoprotein-Cholesterins in der behandelten Gruppe gegenüber einer unter gleichen Bedingungen mitgeführten Kontrollgruppe angegeben.
Veränderung in % der Lipoproteine im Ratten-Serum nach siebentägiger oraler Applikation der Verbindungen

The mark [3] stands for this setting: read-out: Cholesterolveränderung in %, bezogen auf die Kontrollgruppe im Serum.
Where [4] appears, read: read-out: Cholesterolveränderung in %, bezogen auf die Kontrollgruppe in den Serum-Lipoprotein-Fraktionen HDL.
The mark [5] stands for this setting: read-out: Cholesterolveränderung in %, bezogen auf die Kontrollgruppe in den Serum-Lipoprotein-Fraktionen LDL.
The mark [6] stands for this setting: read-out: Cholesterolveränderung in %, bezogen auf die Kontrollgruppe in den Serum-Lipoprotein-Fraktionen VLDL.

Where two headings read alike, the source gives them in different places.

Take `Cc1ccc(Cn2ccnc2)cc1` [1-(4-Methyl-benyl)-imidazol, 1-(4-Methylbenzyl)-imidazol, reference compound]: the “unerwünschte Beeinflussung der Leber” value in data set [1] (rat, in vivo) was “massive Hepatomegalie mit massiven Neutralfett- und Cholesterineinlagerungen”. For the same compound, the change in vivo at 3 mg/kg in data set [2] (setting [3]) is 11%; in data set [2] (setting [4]) it was 18%; in data set [2] (setting [5]), -5%; in data set [2] (setting [6]), 10%. The change in vivo at 10 mg/kg in data set [2] (setting [3]) is 16%; in data set [2] (setting [4]), 22%; in data set [2] (setting [5]), -3%; in data set [2] (setting [6]), -23%. Also, the change in vivo at 30 mg/kg in data set [2] (setting [3]) was -44%; in data set [2] (setting [4]), -24%; in data set [2] (setting [5]), -90%; in data set [2] (setting [6]), -100%.
As for `Cc1cc(Cn2ccnc2)cc(Cl)c1OCc1ccc(C(=O)C(C)(C)C)cc1` [Beispiel 1, 4-[2-Chlor-4-(-imidazol-1-ylmethyl)-6-methylphenoxymethyl]-phenyl-tert.-butyl-keton], the entries for the “% Veränderung des relativen Lebergewichtes” value in data set [1] (1 mg/kg / Tag) and in data set [1] (3 mg/kg / Tag) were “+4%” and “+9%”, respectively. The change in vivo at 1 mg/kg in data set [2] (setting [4]) was 8%; in data set [2] (setting [5]) it was -40%; in data set [2] (setting [6]) it was 0%. The change in vivo at 3 mg/kg in data set [2] (setting [3]) is -12%; in data set [2] (setting [4]), 3%; in data set [2] (setting [5]), -42%; in data set [2] (setting [6]), 0%. Further, the change in vivo at 10 mg/kg in data set [2] (setting [3]) is -17%; in data set [2] (setting [4]) it was -5%; in data set [2] (setting [5]), -52%; in data set [2] (setting [6]) it was 0%.
Regarding `C=CCc1cc(Cn2ccnc2)cc(C)c1OCc1ccc(C(=O)C(C)(C)C)cc1` [Beispiel 1.2], the change in vivo at 30 mg/kg in data set [2] (setting [4]) is 9%; in data set [2] (setting [5]), -39%; in data set [2] (setting [6]), -31%.
For the compound `CC(C)(C)C(=O)c1ccc(COc2c(Cl)cc(Cn3ccnc3)cc2Cl)cc1` [Beispiel 1.6], the change in vivo at 10 mg/kg in data set [2] (setting [4]) is 7%; in data set [2] (setting [5]) it was -32%.
In the case of `C=CCc1cc(Cn2ccnc2)cc(Cl)c1OCc1ccc(C(=O)C(C)(C)C)cc1` [Beispiel 1.7], the change in vivo at 20 mg/kg in data set [2] (setting [3]) was -18%; in data set [2] (setting [4]), -7%; in data set [2] (setting [5]), -43%.
`COc1cc(Cn2ccnc2)cc(OC)c1OCc1ccc(C(=O)C(C)(C)C)cc1` [Beispiel 1.8]: the change in vivo at 20 mg/kg was -19% in data set [2] (setting [3]), -4% in data set [2] (setting [4]), -43% in data set [2] (setting [5]) and -19% in data set [2] (setting [6]).
Regarding `Cc1cc(Cn2ccnc2)cc(C)c1OCc1ccc(C(=O)C(C)(C)CCl)cc1` [Beispiel 1.16], the values for the change in vivo at 3 mg/kg in data set [2] (setting [4]), in data set [2] (setting [5]) and in data set [2] (setting [6]) were -11%, -32% and -32%, respectively. For the same compound, the change in vivo at 10 mg/kg in data set [2] (setting [3]) was -15%; in data set [2] (setting [4]), -1%; in data set [2] (setting [5]) it was -52%; in data set [2] (setting [6]), -24%.
For `Cc1cc(Cn2cncn2)cc(Cl)c1OCc1ccc(C(=O)C(C)(C)C)cc1` [Beispiel 1.19], the change in vivo at 10 mg/kg in data set [2] (setting [3]) is -11%; in data set [2] (setting [5]), -29%; in data set [2] (setting [6]), -35%.
Take `Cc1cc(Cn2cccn2)cc(C)c1OCc1ccc(C(=O)C(C)(C)C)cc1` [Beispiel 1.21]: the change in vivo at 30 mg/kg in data set [2] (setting [3]) is 0%; in data set [2] (setting [5]) it was -35%; in data set [2] (setting [6]), -62%.
Take `Cc1cc(Cn2ccnc2)cc(C)c1OCc1ccc(C(=O)c2ccc(Cl)cc2)cc1` [Beispiel 1.46]: the figures for the change in vivo at 10 mg/kg in data set [2] (setting [5]) and in data set [2] (setting [6]) were -35% and -29%, respectively.
Consider `Cc1cc(Cn2ccnc2)cc(C)c1OCc1ccc(C2(C(C)(C)C)OCCO2)cc1` [Beispiel 1.52], for which the change in vivo at 30 mg/kg in data set [2] (setting [5]) was -23%; in data set [2] (setting [6]), -36%.
For the compound `Cc1cc(Cn2ccnc2)cc(C)c1OCc1ccc(C(O)C(C)(C)C)cc1` (stereo not shown) [Beispiel 2.1], in data set [1] (1 mg/kg / Tag), the “% Veränderung des relativen Lebergewichtes” value was “+11%”. The change in vivo at 1 mg/kg is 17% in data set [2] (setting [4]), -53% in data set [2] (setting [5]) and 17% in data set [2] (setting [6]). In addition, the change in vivo at 10 mg/kg in data set [2] (setting [3]) is -22%; in data set [2] (setting [5]), -66%; in data set [2] (setting [6]) it was -54%.
Take `C=CCc1cc(Cn2ccnc2)cc(C)c1OCc1ccc(C(O)C(C)(C)C)cc1` (stereo not shown) [Beispiel 2.2]: the change in vivo at 30 mg/kg in data set [2] (setting [4]) is 14%; in data set [2] (setting [5]), -49%; in data set [2] (setting [6]), -34%.
On to `CC(C)c1cc(Cn2ccnc2)cc(C(C)C)c1OCc1ccc(C(O)C(C)(C)C)cc1` (stereo not shown) [Beispiel 2.4], for which the figures for the change in vivo at 30 mg/kg in data set [2] (setting [3]), in data set [2] (setting [5]) and in data set [2] (setting [6]) were -12%, -38% and -50%, respectively.
With `Cc1cc(Cn2ccnc2)cc(C)c1OCc1ccc(C(=O)C(C)(C)C)cc1` [Beispiel 3, 4-[2,6-Dimethyl-4-(imidazol-1-ylmethyl)-phenoxymethyl]-phenyl-tert.-butyl-keton], the “% Veränderung des relativen Lebergewichtes” value is reported as -2% in data set [1] (1 mg/kg / Tag) and -4% in data set [1] (3 mg/kg / Tag). Besides, the change in vivo at 1 mg/kg was 5% in data set [2] (setting [4]), -33% in data set [2] (setting [5]) and 30% in data set [2] (setting [6]). The change in vivo at 3 mg/kg was 2% in data set [2] (setting [4]), -36% in data set [2] (setting [5]) and 17% in data set [2] (setting [6]). The change in vivo at 10 mg/kg in data set [2] (setting [4]) was 2%; in data set [2] (setting [5]), -45%; in data set [2] (setting [6]) it was -58%.
